Assay results: publication PMC3486420, “In Vitro and In Vivo Characterizations of Chiglitazar, a Newly Identified PPAR Pan-Agonist” (PPAR Research, 2012)

Experiments:
[1] = molecular target: T1, PPARγ (Homo sapiens, UniProt P37231); test: PPARγ transactivation reporter gene assay in SMMC-7721 cells; assay type: cell-based; settings: SMMC-7721 cells
T1 construct: expressed in transfected cells; host or cells: SMMC-7721 or U2OS
T1 sequence (P37231 1-505): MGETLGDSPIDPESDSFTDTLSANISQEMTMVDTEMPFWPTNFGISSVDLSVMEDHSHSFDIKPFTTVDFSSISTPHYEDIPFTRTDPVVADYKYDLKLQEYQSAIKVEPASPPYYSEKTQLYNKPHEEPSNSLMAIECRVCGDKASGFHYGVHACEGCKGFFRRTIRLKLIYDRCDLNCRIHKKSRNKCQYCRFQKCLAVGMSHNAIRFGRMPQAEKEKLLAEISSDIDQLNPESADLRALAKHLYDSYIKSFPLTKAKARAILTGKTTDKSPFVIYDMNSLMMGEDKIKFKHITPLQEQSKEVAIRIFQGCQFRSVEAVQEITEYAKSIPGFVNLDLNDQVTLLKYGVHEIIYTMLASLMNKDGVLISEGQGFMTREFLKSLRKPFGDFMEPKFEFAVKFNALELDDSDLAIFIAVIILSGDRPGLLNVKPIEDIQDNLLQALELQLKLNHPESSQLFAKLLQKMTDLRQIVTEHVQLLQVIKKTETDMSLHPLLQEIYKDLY
T1 sequence (P19793 1-462 partner): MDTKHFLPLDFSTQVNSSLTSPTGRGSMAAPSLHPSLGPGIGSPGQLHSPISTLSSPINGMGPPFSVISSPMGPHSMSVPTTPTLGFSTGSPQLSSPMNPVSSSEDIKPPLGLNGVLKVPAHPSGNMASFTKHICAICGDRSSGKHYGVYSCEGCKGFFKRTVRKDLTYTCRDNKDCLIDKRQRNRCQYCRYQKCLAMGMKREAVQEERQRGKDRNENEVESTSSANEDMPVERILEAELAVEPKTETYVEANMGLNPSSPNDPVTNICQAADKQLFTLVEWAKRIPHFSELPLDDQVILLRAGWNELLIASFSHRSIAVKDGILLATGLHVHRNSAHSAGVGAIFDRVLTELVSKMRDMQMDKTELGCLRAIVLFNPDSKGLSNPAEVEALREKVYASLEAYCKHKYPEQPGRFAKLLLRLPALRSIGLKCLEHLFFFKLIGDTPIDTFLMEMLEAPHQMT

[2] = test system: db/db mice; test: Oral treatment of diabetic db/db mice (glucose, insulin, IPGTT, body and fat pad weight); assay type: in vivo, mouse
Excerpt: Male db/db mice (BKS.Cg-m +/+ LEPR^db) in 6-7 weeks were purchased from The Jackson Laboratory (Bar Harbor, ME, USA). Male KKAy and C57BL/6J mice in 8–10 weeks were obtained from the Institute of Animal Science, Chinese Academy of Medical Sciences and Peking Union Medical College (Beijing, China). Animals were randomly sorted into different treatment groups (8–10 per group). […] Plasma glucose levels were examined at various time points by Accu-Chek Advantage II Glucose Strips (Roche Diagnostics, Basel, Switzerland) and measured by Accu-Chek Advantage (Roche Diagnostics). Animals were sacrificed 24 h after the last dosing and abdominal fat pad, liver, and skeletal muscle from KKAy mice and abdominal fat pad from db/db mice were taken for gene expression analysis.
For intraperitoneal glucose tolerance test (IPGTT), db/db mice dosed for 14 days were fasted overnight, followed by an intraperitoneal injection of glucose (2 g kg^−1). Blood samples were taken for measurement of plasma glucose before and 30, 60, and 120 min after the glucose load. The area under curves (AUC) was calculated to evaluate the IPGTT results. To determine plasma insulin concentrations, blood samples were taken from db/db mice dosed with different reagents or vehicle for 0, 3, 6, and 9 d, and insulin levels were measured by Insulin ELISA Kit (Roche Diagnostics) following the instructions from the manufacture.
Figure 2 In vivo effects on blood glucose control and insulin sensitization of chiglitazar. Male db/db (a, c and d) and male KKAy mice (b) were treated with vehicle (Ctrl), rosiglitazone (Ros), or chiglitazar (Chi) at the indicated doses for various days. Plasma glucose (a and b) and insulin (c) levels were measured at the indicated time points. […] Data are expressed as mean ± SE.
Figure 4 Influence in body and abdominal fat pad weights of chiglitazar. […] Changes in body weight were evaluated at the indicated days (b), and the fat pads were weighed from the scarified animals at day 15 (c). ^# P < 0.05 compared with day 0, and *P < 0.05 compared with Ctrl. n = 8 per group for KKAy, and n = 10 per group for db/db. Data are expressed as mean ± SE.

[3] = test system: KKAy mice; test: Gene expression by RT-PCR in tissues of treated KKAy mice; assay type: in vivo, mouse; settings: 12 days oral
Experimental: Total RNA was extracted from cells or tissues with an RNeasy minikit (Qiagen, Valencia, CA, USA). The first-strand cDNA was synthesized using the oligo(dT) primers, followed by using SuperScript II reverse transcriptase (Invitrogen) according to the manufacturer's instructions. The PCR amplifications were performed in 10 μL of reaction mixture volume containing 0.8 μL of cDNA, 10 mM Tris-HCl (pH 8.3), 50 mM KCl, 1.5 mM MgCl2, 0.1% Triton X-100, 0.2 mM deoxynucleotide triphosphates, 0.4 μM primers, and 0.25 U of Taq polymerase (TaKaRa Biotechnology Co., Ltd, China). Taq DNA polymerase was added to each tube after a treatment of 2 min at 94°C. This was followed by 22–30 cycles of denaturation (23 s at 94°C), annealing (20 s at 55°C), extension (30 s at 72°C), and a final extension step of 2 min. PCR products were analyzed by electrophoresis on a 1.5% agarose gel stained with ethidium bromide.
Male db/db mice (BKS.Cg-m +/+ LEPR^db) in 6-7 weeks were purchased from The Jackson Laboratory (Bar Harbor, ME, USA). Male KKAy and C57BL/6J mice in 8–10 weeks were obtained from the Institute of Animal Science, Chinese Academy of Medical Sciences and Peking Union Medical College (Beijing, China). Animals were randomly sorted into different treatment groups (8–10 per group). […]. Plasma glucose levels were examined at various time points by Accu-Chek Advantage II Glucose Strips (Roche Diagnostics, Basel, Switzerland) and measured by Accu-Chek Advantage (Roche Diagnostics). Animals were sacrificed 24 h after the last dosing and abdominal fat pad, liver, and skeletal muscle from KKAy mice and abdominal fat pad from db/db mice were taken for gene expression analysis.
Figure 3 In vivo regulation of gene expression by chiglitazar. […]. Equal amount of total RNA from each mouse in the same group was mixed and subjected to RT-PCR analysis for the indicated genes. […]. Total RNA was isolated from individual animal tissues and subjected to the RT-PCR analysis independently for the indicated genes.

[4] = chiglitazar 20 mg kg^−1, rosiglitazone 5 mg kg^−1

Compound: O=C(c1ccc(F)cc1)c1ccccc1NC(Cc1ccc(OCCn2c3ccccc3c3ccccc32)cc1)C(=O)O (centres unmarked) [Chi, 2-[(2-(4-fluorobenzoyl)phenyl)amino]-3-[4-(2-carbazolylethoxy)-phenyl]-propionic acid]
- EC50 ([1]; 24 h treatment, luciferase reporter, hRXR cotransfected, ia: inactive at 10 μM, read-out: PPARγ EC50): 0.09 ± 0.02 µM
- PPARγ % Max ([1]; max response compared with Ros at 1 μM): 105%
- Glucose tolerance (IPGTT) ([2]; db/db mice, 20 mg kg^−1 oral daily, 14 days): increased
- Body weight ([2]; db/db mice, 5, 10 and 20 mg kg^−1 oral daily, 14 days): dose-dependent weight gain
- Abdominal fat pad weights ([2]; db/db mice, chiglitazar 20 mg kg^−1 vs rosiglitazone 5 mg kg^−1, 14 days): less increase
- BG (blood glucose) levels ([2]; db/db mice, oral daily, 5 to 20 mg kg^−1, 14 days): significantly lowered
- Plasma insulin concentrations ([2]; db/db mice, oral daily, different doses, compared with vehicle control): markedly decreased
- Expression of ACADL, HSL, GLUT4 and PPARγ in liver and skeletal muscle [3, 4]: not affected
- Expression of genes involved in PPARγ-mediated insulin sensitization in adipose tissue [3, 4]: almost identically up-regulated
- Expression of PPARα and VLCS in adipose tissue ([3]; chiglitazar 20 mg kg^−1 compared with rosiglitazone 5 mg kg^−1): greater degree of upregulation
- Expression of leptin and SREBP1 in liver and skeletal muscle ([3]; chiglitazar 20 mg kg^−1 vs rosiglitazone 5 mg kg^−1): more upregulated
